We go through one compound from patent publication US11739261B2, “Fluorescent probes for acid detection” (THE HONG KONG UNIVERSITY OF SCIENCE AND TECHNOLOGY, priority 2019, dated 2023).

The test can be described thus: Acid response study of TPI-C in the aggregation state (PL intensity). It is filed as physicochemical. The procedure: FIGS. 1A-1C depict PL spectra of TPI-C (10 μM in THF/hexane mixtures with fH=99%) with adding (1A) HCOOH at different concentrations; (1B) CH3COOH at different concentrations; and (1C) CF3COOH at different concentrations.
FIG. 1D is a graph of relative PL intensity (I/I0) at different acid concentrations (x-axis represents acid concentration at (a) 0 M, (b) 1×10^−20 M, (c) 1×10^−14 M and (d) 1×10^−8 M, respectively).
An acid response study of TPI-C in the aggregation state was performed first. The fluorescent intensity response of TPI-C was investigated by adding different acids with various concentrations. In general, the fluorescent intensity of TPI-C was enhanced upon adding the acid. TPI-C responded in this manner to the formic acid, acetic acid (AcOH) and trifluoroacetic acid (TFA) at concentrations as low as 10^−20 M. For the formic acid, its highest intensity enhancement was around 55% at the acid concentration level of 10^−20 M, as shown in FIG. 1A. When AcOH (1×10^−20 M, 1 μL) and TFA (1×10^−20 M, 1 μL) were added to the TPI-C solution, the intensity enhancement of TPI-C was around 120% (FIG. 1B) and 96% (FIG. 1C), respectively.

For the compound `CCCCCCCCn1c(-c2ccc(OC(=O)NCC)cc2)nc(-c2ccccc2)c1-c1ccccc1` [TPI-C], the fluorescent intensity enhancement result is given as “around 120%” (AcOH 1×10^−20 M, 1 μL added to TPI-C solution); ~96% (TFA 1×10^−20 M, 1 μL added to TPI-C solution); “around 55%” (formic acid 10^−20 M, TPI-C 10 μM in THF/hexane fH=99%, highest enhancement). In addition, the “acid concentration at which fluorescent intensity is enhanced (as low as)” value (formic acid, AcOH, TFA) is 10^−20 M.
